Assay results as given in patent US20050222048A1, “Novel synthetic C-glycolipids, their synthesis and use to treat infections, cancer and autoimmune diseases” (The Research Foundation of The City University of New York, priority 2004, published 2005).

Test system: IFN-γ
Experiment: Serum IFN-γ concentration by sandwich ELISA after i.v. injection of glycolipid into mice
Assay type: in vivo
Conditions: BALB/c mice, 1 μg i.v., ELISA at 2, 6, 12 and 24 hours post-injection
Procedure: α-Galactosylceramide (α-GalCer, KRN or KRN7000) was synthesized by Kirin Brewery (Gumma, Japan). The stock solution was dissolved in a 0.5% polysorbate −20 (Nikko Chemical, Tokyo), 0.9% NaCl solution at a concentration of 200 μg/ml, and diluted in PBS just before injection into mice. α-C-galactosylceramide (α-C-GalCer, CRONY or CRONY-101) was synthesized as described in commonly owned U.S. patent application Ser. No. 10/462,211. Compounds […], GCK75(a) and GCK75(b) were synthesized as described herein. The stock solution was originally dissolved in 100% DMSO at a concentration of 1 mg/ml. Before injection into mice, it was diluted to a concentration of 200 μg/ml in a 0.5% polysorbate-20 (Nikko Chemical, Tokyo), 0.9% NaCl solution, and diluted in PBS just before injection into mice. […]
The serum concentrations of IFN-γ were measured at 2, 6, 12, and 24 hours after treatment with α-GalCer, α-C-GalCer, compound […], GCK75(a), GCK75(b), or nothing using a sandwich ELISA (e-bioscience, San Diego).
To compare the timing of immunological responses to α-GalCer (KRN), α-C-GalCer (CRONY), GCM11i, GCK75(a), and GCK75(b), mice were injected intravenously (i.v.) with 1 μg of each of the glycolipids or with nothing. At 2, 6, 12, and 24 hours post-injection, IFN-γ concentrations in the sera were measured by ELISA.

α-C-galactosylceramide [α-C-GalCer] was tested, and the “time of peak IFN-γ response in the sera post-injection” value was 24 h.
